Each block holds one molecule with its values, some of them ahead of it.
Assays:
primary keratinocytes = experiment: Calcium imaging in primary keratinocytes; format: cell-based, human; conditions: for effect of blocker on Sandalore-induced calcium signals: primary keratinocytes, EGTA 10 mM calcium-free, SQ-22536 100 μM, MDL-12330A 40 μM, U-73122 10 μM, L-cis-diltiazem 150 μM
From the text: (§1) The Sandalore®-induced signal cascade in HaCaT cells and primary keratinocytes was pharmacologically characterized using the calcium imaging technique and specific blockers of signal cascade proteins. An investigation was first conducted in order to determine whether the calcium signals are caused by calcium inflow from the extracellular space. For this purpose, a calcium-free extracellular solution was used with a calcium chelator (EGTA) added. […] In order to investigate the role of adenylyl cyclase, the specific blockers SQ-22536 and MDL-12330A were used. […] The efficacy of the blockers was tested in this case with histamine, which activated the PLC signalling pathway (FIG. 11c).
(§2) Effect of the OR2AT4 ligand Sandalore® on intracellular calcium concentration of cultivated keratinocytes. […] 100 μM of ATP was used at the end of each measurement as a positive control stimulus. Right: Quantitative evaluation of calcium signals in 4-time application of Sandalore® (500 μM). Shown are the mean values of the individual applications including standard error. Mann-Whitney U test. *: p<0.05. C) and D): dose-dependent activation of HaCaT cells in calcium imaging experiments. Shown are the mean amplitudes including standard error at various concentrations in the first (C) and fourth (D) Sandalore® application. Number of cells measured: 0.0125 mM (39), 0.025 mM (30), 0.1 mM (46), 0.5 mM (34), 1 mM (63), 2 mM (41), 10 mM (36).
(§3) A) Representative calcium imaging traces of HaCaT cells (left) and primary keratinocytes (right) incubated with the gap junction blocker 1-octanol (500 μM) and then repeatedly stimulated with Sandalore® (500 μM, horizontal bars) (blue trace). […] 100 μM of ATP was used at the end of each measurement as a positive control stimulus. Quantitative evaluation of HaCaT cells (B) and primary keratinocytes (C) incubated with the gap junction blockers 1-octanol (500 μM) or carbenoxolone (10 μM) and then repeatedly stimulated with Sandalore® (500 μM) or Lyral (1 mM) in calcium imaging experiments. Shown are the mean values of the individual applications including standard error relative to the control measurements (Sandalore® application without blocker). Mann-Whitney U test. Number of cells measured: Sandalore®+1-octanol (HaCaT (110), keratinocytes (26)); Sandalore®+carbenoxolone: HaCaT (74); Lyral+carbenoxolone: HaCaT (43). ***: p<0.001.
Pharmacological characterization of Sandalore®-induced signal cascade in human keratinocytes. A)-D). Shown are representative calcium imaging traces of primary keratinocytes in the presence of a blocker (blue). The horizontal bars correspond to the application times. 100 μM of ATP was used at the end of each measurement as a positive control stimulus. A) Measurement with calcium-free extracellular solution (+10 mM EGTA). B) Measurement with the adenylyl cyclase blocker SQ-22536 (100 μM). C) Use of the phospholipase-C blocker U-73122 (10 μM). 100 μM of histamine was taken as a positive control. D) Measurement with the CNG channel blocker L-cis-diltiazem (150 μM). E) Overview of pharmacological measurement of HaCaT cells and primary keratinocytes (Kera). The mean amplitudes relative to the control measurements (dashed line) are indicated. MDL-12330A (40 μM). EGTA: calcium-free Ringer (HaCaT n=46, Kera n=52), SQ: SQ-22536 (HaCaT n=60, Kera n=26), MDL: MDL-12330A (HaCaT n=69, Kera n=24), U-73122 (HaCaT n=41, Kera n=25), L-cis-D.: L-cis-diltiazem (HaCaT n=41, Kera n=25). Mann-Whitney U test. ***: p<0.001. F) Determination of the cAMP contents of HaCaT cells after stimulation with Sandalore® by means of cAMP-Glo™ assays. The dots show the mean cAMP content including standard error after 10-minute Sandalore® stimulation (1 μM-10,000 μM). Significance was determined between HaCaT cells stimulated with Sandalore® and stimulated with an equivalent volume of DMSO (0.2%). Kruskal-Wallis Test with multiple comparison; n=3 experiments. *: p<0.05.

HaCaT cells = experiment: Calcium imaging in HaCaT cells; format: cell-based, human; conditions: for effect of blocker on Sandalore-induced calcium signals: HaCaT cells, EGTA 10 mM calcium-free, SQ-22536 100 μM, MDL-12330A 40 μM, U-73122 10 μM, L-cis-diltiazem 150 μM; for increase of the first amplitude induced by Sandalore after preincubation with gap junction blocker: HaCaT, 1-octanol 500 μM or carbenoxolone 10 μM, Sandalore 500 μM
Description: In the fourth application, saturation occurred at approx. 500 μM (FIG. 9d). The ECR50R value was 430 μM of Sandalore® in the first application and 112 μM of Sandalore® in the fourth application.
as §1, with “11c). […]” for “11c).”
In order to characterize the antagonists, HaCaT cells were first repeatedly stimulated with Sandalore® (1 mM). On the third application, costimulation (1:1) with Sandalore® and one of the antagonists took place. […] Based on this, dose-dependent characterization of inhibition was to be carried out. For this purpose, Sandalore® and the antagonists were costimulated with different concentrations.
as §2, §3
Pharmacological characterization of Sandalore®-induced signal cascade in human keratinocytes. A)-D). Shown are representative calcium imaging traces of primary keratinocytes in the presence of a blocker (blue). The horizontal bars correspond to the application times. 100 μM of ATP was used at the end of each measurement as a positive control stimulus. A) Measurement with calcium-free extracellular solution (+10 mM EGTA). B) Measurement with the adenylyl cyclase blocker SQ-22536 (100 μM). C) Use of the phospholipase-C blocker U-73122 (10 μM). 100 μM of histamine was taken as a positive control. D) Measurement with the CNG channel blocker L-cis-diltiazem (150 μM). E) Overview of pharmacological measurement of HaCaT cells and primary keratinocytes (Kera). The mean amplitudes relative to the control measurements (dashed line) are indicated. MDL-12330A (40 μM). […]

[1] = target: T1, recombinantly expressed OR2AT4 (Homo sapiens, UniProt A6NND4); experiment: Calcium imaging of transiently OR2AT4-transfected Hana3A cells; format: cell-based; conditions: for response rate of the Hana3A cells relative to the Ringer control: 1 mM odorant, 20 s stimulation, OR2AT4-transfected Hana3A cells
T1 construct: expressed in transfected cells; host or cells: Hana3A cells, transient transfection with pcDNA3-OR2AT4 by the calcium phosphate method
T1 sequence (A6NND4 1-320): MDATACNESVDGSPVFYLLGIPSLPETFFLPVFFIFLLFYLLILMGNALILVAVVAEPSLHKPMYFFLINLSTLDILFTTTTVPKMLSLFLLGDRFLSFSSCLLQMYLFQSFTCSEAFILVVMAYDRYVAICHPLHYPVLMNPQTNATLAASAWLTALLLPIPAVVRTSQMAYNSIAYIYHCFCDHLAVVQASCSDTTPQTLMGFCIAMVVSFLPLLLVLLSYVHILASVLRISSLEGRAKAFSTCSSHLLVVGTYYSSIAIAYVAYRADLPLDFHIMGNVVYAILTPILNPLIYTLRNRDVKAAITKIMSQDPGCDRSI
Description: Hana3A cells expressing stable endogenous olfactory transduction factors, which specifically target the incorporation of ORs into the cell membrane and thus improve activation capacity, were used as a heterologous expression system. Moreover, the 20 first N-terminal amino acids of rhodopsins (Rho-tag) were added before the N-terminus of the coding sequence of the OR, also in order to support heterologous expression.
A method established at the Department of Cell Physiology of Ruhr University Bochum for deorphanization studies is calcium imaging, in which activation of an OR by an odorant is visualized by a change in the intracellular calcium concentration of transfected cells using a fluorescent dye [cf. Wetzel et al. in: J. Neurosci. 19, pp. 7426-7433 (1999); Spehr et al. in: Science 299, pp. 2054-2058 (2003); Neuhaus et al. in: J. Biol. Chem. 284, pp. 16218-16225 (2009)]. In this method, the Hana3A cells are briefly (20 s) stimulated with an odorant and selected for odorant screenings of high concentrations (up to 1 mM) in order to confirm activation of ORs weakly expressed in Hana3A cells.
The activation of OR2AT4 by Sandalore® was first investigated by the calcium imaging method.
Odorants can not only activate a receptor, but can also act as antagonists to an OR.
(§4) Determination of receptive field of recombinantly expressed OR2AT4. […] As a control, untransfected Hana3A cells were simulated with Sandalore®. 100 μM of ATP was used at the end of each measurement as a positive control stimulus. […] The mean response rate including standard error of the cells is shown relative to the Ringer control. […] Isobornyl.: isobornyl cyclohexanol; S. öl: sandalwood oil. Kruskal-Wallis test with multiple comparison. *: p<0.05. […] Significance was determined between Hana3A cells transfected with OR2AT4-pcDNA3 and pcDNA3 without an insert. The dots show mean normalized luciferase-activity including standard error. Mann-Whitney U test; n=3 experiments. *: p<0.05; **: p<0.01; ***: p<0.001.
Antagonists of recombinantly expressed OR2AT4. […] 100 μM of ATP was used at the end of each measurement as a positive control stimulus. […] The mean response rate including standard error of the cells is shown relative to the Ringer control. Number of measurements: Ringer (23), Sandalore® (22), Sandalore®+dimetol (11), dimetol (11), Phenirat (14), Sandalore®+Phenirat (22), Oxyphenylon (12), and Sandalore®+Oxyphenylon (20). S: Sandalore®. Kruskal-Wallis test with multiple comparison. *: p<0.05.

[2] = target: T1, recombinantly expressed OR2AT4; experiment: CRE dual luciferase assay in OR2AT4-transfected Hana3A cells; format: cell-based; conditions: up to the highest useable concentrations 10-25 μM
From the text: In order to verify calcium imaging results and investigate dose-dependent activation of OR2AT4, a further method of deorphanization based on a dual luciferase system was used. In this method, in addition to the OR, two luciferases were introduced into the Hana3A cells. When the expressed OR is activated by an odorant and cAMP is formed in the further course of the signal cascade, this initiates expression of firefly luciferase via CRE (cAMP response elements). The second luciferase, Renilla luciferase, serves as a control for transfection and vitality of the cells. By calculating the two luciferase values, the activation capacity of an OR by an odorant can be determined. In the CRE luciferase assay, the odorant remains on the cells for hours in order to ensure that the luciferase is expressed. Because of the longer incubation time of the odorants and the possibility of activating more receptors in a 96-well format, this method is more sensitive than calcium imaging and is well-suited for establishing dose-response relationships.
For Brahmanol, however, a higher concentration (≥75 μM) was required than for Sandalore® (≥25 μM) in order to produce a significant effect at the receptor (FIG. 3c).
as §4

SMILES: COc1ccc([C@H]2Sc3ccccc3N(CCN(C)C)C(=O)[C@H]2OC(C)=O)cc1 (relative stereo) [L-cis-diltiazem]
effect of blocker on Sandalore-induced calcium signals (primary keratinocytes): significantly reduced | effect of blocker on Sandalore-induced calcium signals (HaCaT cells): significantly reduced

SMILES: CCCCCCCCO [1-octanol]
increase of the first amplitude induced by Sandalore after preincubation with gap junction blocker (primary keratinocytes; keratinocytes, 1-octanol 500 μM, Sandalore 500 μM): ~1000% | increase of the first amplitude induced by Sandalore after preincubation with gap junction blocker (HaCaT cells): approx. 400%

SMILES: O=C(O)CN(CCOCCOCCN(CC(=O)O)CC(=O)O)CC(=O)O [EGTA]
effect of blocker on Sandalore-induced calcium signals (primary keratinocytes): significantly reduced | effect of blocker on Sandalore-induced calcium signals (HaCaT cells): significantly reduced

SMILES: CC1=CCC(/C=C\C(C)C(C)O)C1(C)C (stereo not drawn) [Ebanol]
response rate of the Hana3A cells relative to the Ringer control [1]: only Brahmanol showed an increased response rate

activation of OR2AT4 in the luciferase assay [2]: no increased activation of OR2AT4
SMILES: CC1(CO)CC1CC1CC2CC2(C)C1(C)C (stereo not drawn) [Javanol]
response rate of the Hana3A cells relative to the Ringer control [1]: only Brahmanol showed an increased response rate

SMILES: CC(C)(O)CCCC1=CCC(C=O)CC1 (stereo not drawn) [Lyral]
odorant-induced calcium signals in skin cells (HaCaT cells; Lyral 1 mM): induces calcium signals in skin cells

SMILES: Cl.c1ccc(C2CCCC2NC2=NCCCCCCCCCCC2)cc1 (stereo not drawn) [MDL-12330A]
effect of blocker on Sandalore-induced calcium signals (primary keratinocytes): significant reduction | effect of blocker on Sandalore-induced calcium signals (HaCaT cells): significant reduction

SMILES: Nc1ncnc2c1ncn2C1CCCO1 (stereo not drawn) [SQ-22536]
effect of blocker on Sandalore-induced calcium signals (primary keratinocytes): significant reduction | effect of blocker on Sandalore-induced calcium signals (HaCaT cells): significant reduction

SMILES: COc1ccc2c(c1)CC[C@@H]1[C@@H]2CC[C@]2(C)[C@@H](NCCCCCCN3C(=O)C=CC3=O)CC[C@@H]12 [U-73122]
effect of blocker on Sandalore-induced calcium signals (primary keratinocytes): no effect | effect of blocker on Sandalore-induced calcium signals (HaCaT cells): no effect

SMILES: CC1(C)[C@@H](OC(=O)CCC(=O)O)CC[C@]2(C)[C@H]3C(=O)C=C4[C@@H]5C[C@@](C)(C(=O)O)CC[C@]5(C)CC[C@@]4(C)[C@]3(C)CC[C@@H]12 [carbenoxolone]
increase of the first amplitude induced by Sandalore after preincubation with gap junction blocker (HaCaT cells): the same result | effect on the Lyral-induced response pattern (HaCaT cells; pre-incubation with blocker 10 μM, Lyral 1 mM): No effect

effect on Sandalore-induced calcium signals in coapplication ([1]; coapplication with Sandalore 1:1, 1 mM respectively): no effect | effect of the odorant alone on the Hana3A cells ([1]; odorant alone, 1 mM): no effect
SMILES: CC(C)CCCC(C)(C)O [dimetol]
effect on Sandalore-induced calcium signals on coapplication (HaCaT cells; third application, costimulation 1:1 with Sandalore 1 mM): only slightly reduced

— patent publication US10835500B2, “Medicament for accelerated wound healing” (Symrise AG, priority 2014, dated 2020)
